Measurements reported in patent US9345247B2, “Azaindole carboxylic acid amides and azaindole thiocarboxylic acid amides for use as insecticides and acaricides” (BAYER CROPSCIENCE AG, priority 2012, dated 2016).
Like-named read-outs stand apart in the source and are kept apart here.

Key:
[1] = log P by HPLC on reversed-phase column (C18), EEC directive 79/831 Annex V.A8; assay type: physicochemical; conditions: for chromatographic logP: reversed-phase HPLC column (C18)
Description: a) The determination of the W by LC-MS in the acidic range is effected at pH 2.7, acetonitrile (contains 0.1% formic acid) and water as eluents; linear gradient from 10% acetonitrile to 95% acetonitrile, instrument: Agilent 1100 LC-System, Agilent MSD System, HTS PAL. The log P values reported in the tables and Preparation Examples above were determined in accordance with EEC directive 79/831 Annex V.A8 by HPLC (High Performance Liquid Chromatography) using a reversed-phase column (C18). Temperature 43° C. The calibration is effected with unbranched alkan-2-ones (having 3 to 16 carbon atoms), for which the log P values are known.

[2] = test system: larvae of the mustard beetle (Phaedon cochleariae); assay: Phaedon cochleariae spray test (PHAECO); assay type: in vivo; conditions: for efficacy / pest or weed control at 100 g/ha: spray, after 7 days; for pest or weed control at 100 g/ha / percent efficacy (larval mortality) at 20 g/ha: Phaedon cochleariae, 168 h; for pest or weed control at 100 g/ha: read-out: efficacy; for percent efficacy (larval mortality) at 20 g/ha: PHAECO, 20 g of ai/ha, 7 d, read-out: % Efficacy dat
Description: Phaedon cochleariae—Spray Test (PHAECO)
To produce a suitable preparation of active compound, 1 part by weight of active compound is mixed with the stated amounts of solvent and emulsifier, and the concentrate is diluted with emulsifier-containing water to the desired concentration.
Discs of Chinese cabbage leaves (Brassica pekinensis) are sprayed with an active compound formulation of the desired concentration and, after drying, populated with larvae of the mustard beetle (Phaedon cochleariae).
After 7 days, the efficacy in % is determined. 100% means that all the beetle larvae have been killed; 0% means that no beetle larvae have been killed.
After the stated period of time, the effect in % is determined 100% means that all the beetle larvae have been killed; 0% means that no beetle larvae have been killed.

[3] = HPLC, acidic range pH 2.7, 43° C.
[4] = HPLC, acidic range pH 2.7, 43° C., read-out: log p

log p [1, 3]	SMILES	further results
	CCn1c(C(=O)NC(c2ccc(F)c(C(F)(F)F)c2)C(F)(F)F)cc2nc(C(=O)NC3CC3)ccc21 (stereo not shown) [Compound 2, N^5-Cyclopropyl-1-ethyl-N^2-{2,2,2-trifluoro-1-[4-fluoro-3-(trifluoromethyl)phenyl]ethyl}-1H-pyrrolo[3,2-b]pyridine-2,5-dicarboxamide]	chromatographic logP ([1]; pH 2.7, final compounds of the synthesis examples, read-out: log P (HPLC-MS)): 3.78
3.19	CCn1c(C(=O)NC(c2cccc(C(F)(F)F)c2)C(F)(F)F)cc2cc(C(=O)NC3CC3)cnc21 (stereo not shown) [Compound 3]	efficacy ([2]; 100 g/ha): 100%
3.74	CCn1c(C(=O)NC(c2cccc(C(F)(F)F)c2)C(F)(F)F)cc2cc(C(=O)NC(C)C)c(C)nc21 (stereo not shown) [Compound 4]	efficacy ([2]; 100 g/ha): 100%
3.67	CCn1c(C(=O)NC(c2cccc(C(F)(F)F)c2)C(F)(F)F)cc2cc(C(=O)NC(CF)CF)c(C)nc21 (stereo not shown) [Compound 8]	efficacy ([2]; 100 g/ha): 100%
3.79	CCn1c(C(=O)NC(c2cccc(C(F)(F)F)c2)C(F)(F)F)cc2cc(C(=O)NCC(F)F)c(Cl)nc21 (stereo not shown) [Compound 13]	efficacy ([2]; 100 g/ha): 100%
	CCn1c(C(=O)NC(c2cccc(C(F)(F)F)c2)C(F)(F)F)cc2cc(C(=O)NC(C)C)c(Cl)nc21 (stereo not shown) [Compound 14]	chromatographic logP [1, 4]: 3.97; pest or weed control at 100 g/ha ([2]; 100 g/ha): 100%; percent efficacy (larval mortality) at 20 g/ha [2]: 100%
4.43	CCn1c(C(=O)NC(c2cc(Cl)c(F)c(Cl)c2F)C(F)(F)F)cc2cc(C(=O)NC3CC3)c(Cl)nc21 (stereo not shown) [Compound 18]	efficacy ([2]; 100 g/ha): 100%
4.62	CCn1c(C(=O)NC(c2cc(Cl)c(F)c(Cl)c2F)C(F)(F)F)cc2cc(C(=O)NC(C)C)c(Cl)nc21 (stereo not shown) [Compound 19]	
4.44	CCn1c(C(=O)NC(c2cc(Cl)c(F)c(Cl)c2)C(F)(F)F)cc2cc(C(=O)NC(C)C)c(Cl)nc21 (stereo not shown) [Compound 21]	
3.68	C#CCn1c(C(=O)NC(c2cccc(C(F)(F)F)c2)C(F)(F)F)cc2cc(C(=O)NC(C)C)c(Cl)nc21 (stereo not shown) [Compound 24]	efficacy ([2]; 100 g/ha): 100%; efficacy ([2]; 500 g/ha): 100%
	CCCNC(=O)c1cc2cc(C(=O)NC(c3cccc(C(F)(F)F)c3)C(F)(F)F)n(CC)c2nc1Cl (stereo not shown) [Compound 34]	chromatographic logP [1, 4]: 3.99; pest or weed control at 100 g/ha ([2]; 100 g/ha): 100%; percent efficacy (larval mortality) at 20 g/ha [2]: 100%
3.83	CCn1c(C(=O)NC(c2cccc(C(F)(F)F)c2)C(F)(F)F)cc2cc(C(=O)NC(CF)CF)c(Cl)nc21 (stereo not shown) [Compound 35]	
3.83	CCn1c(C(=O)NC(c2cccc(C(F)(F)F)c2)C(F)(F)F)cc2cc(C(=O)NC(C)CF)c(Cl)nc21 (stereo not shown) [Compound 36]	
3.18	CCn1c(C(=O)NC(c2cccc(C(F)(F)F)c2)C(F)(F)F)cc2cc(C(=O)NCc3ccccn3)c(Cl)nc21 (stereo not shown) [Compound 37]	efficacy ([2]; 100 g/ha): 100%
4.88	CCn1c(C(=O)NC(c2cccc(C(F)(F)F)c2)C(F)(F)F)cc2cc(C(=O)Nc3ccc(Cl)cn3)c(Cl)nc21 (stereo not shown) [Compound 40]	efficacy ([2]; 100 g/ha): 83%; efficacy ([2]; 500 g/ha): 100%
3.58	CCn1c(C(=O)NC(c2cccc(C(F)(F)F)c2)C(F)(F)F)cc2cc(C(=O)NCC(=O)OC)c(Cl)nc21 (stereo not shown) [Compound 44]	
3.69	C#CCNC(=O)c1cc2cc(C(=O)NC(c3cccc(C(F)(F)F)c3)C(F)(F)F)n(CC)c2nc1Cl (stereo not shown) [Compound 45]	efficacy ([2]; 100 g/ha): 100%
4.20	CCn1c(C(=O)NC(c2ccc(F)c(C(F)(F)F)c2)C(F)(F)F)cc2cc(C(=O)NC3CCC3)c(Cl)nc21 (stereo not shown) [Compound 46]	efficacy ([2]; 100 g/ha): 100%
4.62	CCn1c(C(=O)NC(c2cc(Cl)c(F)c(Cl)c2)C(F)(F)F)cc2cc(C(=O)NC3CCC3)c(Cl)nc21 (stereo not shown) [Compound 48]	
4.11	CCn1c(C(=O)NC(c2ccc(F)c(Cl)c2)C(F)(F)F)cc2cc(C(=O)NC3CCC3)c(Cl)nc21 (stereo not shown) [Compound 49]	

log p [1, 3]	SMILES	further results
4.47	CCn1c(C(=O)NC(c2ccc(Cl)c(Cl)c2)C(F)(F)F)cc2cc(C(=O)NC3CCC3)c(Cl)nc21 (stereo not shown) [Compound 54]	
4.29	CCn1c(C(=O)NC(c2ccc(Cl)c(Cl)c2)C(F)(F)F)cc2cc(C(=O)NC(C)C)c(Cl)nc21 (stereo not shown) [Compound 56]	
4.36	CCn1c(C(=O)NC(c2cc(Cl)c(F)c(Cl)c2)C(F)(F)F)cc2cc(C(=O)NC3(C#N)CC3)c(C(F)(F)F)nc21 (stereo not shown) [Compound 77]	
4.25	CCn1c(C(=O)NC(c2cc(Cl)c(F)c(Cl)c2)C(F)(F)F)cc2cc(C(=O)NC3(C(N)=S)CC3)c(C(F)(F)F)nc21 (stereo not shown) [Compound 78]	
4.04	C#CCn1c(C(=O)NC(c2cc(Cl)c(F)c(Cl)c2)C(F)(F)F)cc2cc(C(=O)NC3CC3)c(C(F)(F)F)nc21 (stereo not shown) [Compound 79]	
3.99	C#CCn1c(C(=O)NC(c2cc(Cl)c(F)c(Cl)c2F)C(F)(F)F)cc2cc(C(=O)NC3(C#N)CC3)c(Cl)nc21 (stereo not shown) [Compound 80]	
3.34	C#CCn1c(C(=O)NC(c2cccc(C(F)(F)F)c2)C(F)(F)F)cc2cc(C(=O)NC3(C#N)CC3)c(C)nc21 (stereo not shown) [Compound 81]	
4.45	CCn1c(C(=O)NC(c2cc(Cl)c(F)c(Cl)c2F)C(F)(F)F)cc2cc(C(=O)NC3(C(N)=S)CC3)c(C(F)(F)F)nc21 (stereo not shown) [Compound 82]	
4.02	CCn1c(C(=O)NC(c2ccc(Cl)c(C(F)(F)F)c2)C(F)(F)F)cc2cc(C(=O)NC3(C#N)CC3)c(Cl)nc21 (stereo not shown) [Compound 83]	
3.90	CCn1c(C(=O)NC(c2ccc(Cl)c(C(F)(F)F)c2)C(F)(F)F)cc2cc(C(=O)NC3(C(N)=S)CC3)c(Cl)nc21 (stereo not shown) [Compound 84]	
4.42	CCn1c(C(=O)NC(c2cc(Cl)c(F)c(Cl)c2)C(F)(F)F)cc2cc(C(=O)NC3CC3)c(C(F)(F)F)nc21 (stereo not shown) [Compound 86]	
4.66	CCn1c(C(=O)NC(c2cc(Cl)c(F)c(Cl)c2F)C(F)(F)F)cc2cc(C(=O)NC3CC3)c(C(F)(F)F)nc21 (stereo not shown) [Compound 87]	
4.06	CCn1c(C(=O)NC(c2ccc(Cl)c(C(F)(F)F)c2)C(F)(F)F)cc2cc(C(=O)NC3CC3)c(Cl)nc21 (stereo not shown) [Compound 88]	
3.72	CCn1c(C(=O)NC(c2ccc(Cl)c(C(F)(F)F)c2)C(F)(F)F)cc2cc(C(=O)NC3(C(N)=S)CC3)c(C)nc21 (stereo not shown) [Compound 89]	
3.91	CCn1c(C(=O)NC(c2ccc(Cl)c(C(F)(F)F)c2)C(F)(F)F)cc2cc(C(=O)NC3(C#N)CC3)c(C)nc21 (stereo not shown) [Compound 90]	
3.90	CCn1c(C(=O)NC(c2ccc(Cl)c(C(F)(F)F)c2)C(F)(F)F)cc2cc(C(=O)NC3CC3)c(C)nc21 (stereo not shown) [Compound 91]	
3.59	CCn1c(C(=O)NC(c2cccc(C(F)(F)F)c2)C(F)(F)F)cc2cc(CNC(=O)C3CC3)c(C)nc21 (stereo not shown) [Compound 92]	
	CCn1c(C(=O)NC(c2ccc(Cl)c(C(F)(F)F)c2)C(F)(F)F)c(Br)c2cc(C(=O)NC3(C(N)=S)CC3)c(C)nc21 (stereo not shown) [Compound 98]	chromatographic logP [1, 4]: 3.97
	CCn1c(C(=O)NC(c2cccc(C(F)(F)F)c2)C(F)(F)F)cc2cc(C(=O)NC(C)C)c(Cl)cc21 (stereo not shown) [reference compound]	percent efficacy (larval mortality) at 20 g/ha [2]: 0%
	CCCNC(=O)c1cc2cc(C(=O)NC(c3cccc(C(F)(F)F)c3)C(F)(F)F)n(CC)c2cc1Cl (stereo not shown) [reference compound]	percent efficacy (larval mortality) at 20 g/ha [2]: 67%

SMILES	log p [1, 3]	further results
CCn1c(C(=O)NC(c2cc(Cl)c(F)c(Cl)c2)C(F)(F)F)cc2cc(C(=O)NC3CC3)c(Cl)nc21 (stereo not shown) [Compound 20]	4.23	efficacy ([2]; 100 g/ha): 100%
